Assay results published in ChEMBL document CHEMBL1201862, “PubChem BioAssay data set” (2004).
Several values for one entry are separate records, joined by “and”; a condition that tells them apart may be missing. Equal entries are not always repeated.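 Exposure lasted 48 hours, with cells grown in 96-well plates and compounds tested at five concentrations. The concentration for 50% growth inhibition is given as GI50.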 Activity calls are given as the source filed them. Cut-off read from the data, not from the text of the source: active = GI50 up to about 1.1 µM and inactive = higher.

What was measured:
Experiment in all cases: growth of human tumour cells (NCI), 48 h
[1] = tested on: MOLT-4
[2] = tested on: SW-620
[3] = tested on: HCC 2998
[4] = tested on: RXF 393
[5] = tested on: KM-20L2
[6] = tested on: A549
[7] = tested on: EKVX
[8] = tested on: SK-MEL-5
[9] = tested on: NCI-H23
[10] = tested on: HCT-15
[11] = tested on: RXF 631
[12] = tested on: HOP-92
[13] = tested on: SK-OV-3
[14] = tested on: ACHN
[15] = tested on: IGROV-1
[16] = tested on: SK-MEL-28
[17] = tested on: SF-268
[18] = tested on: 786-0
[19] = tested on: SK-MEL-2
[20] = tested on: UACC-257
[21] = tested on: KM12
[22] = tested on: HOP-18
[23] = tested on: NCI/ADR-RES
[24] = tested on: HL-60
[25] = tested on: NCI-H460
[26] = tested on: SF-295
[27] = tested on: OVCAR-5
[28] = tested on: OVCAR-8
[29] = tested on: HOP-62
[30] = tested on: SNB-75
[31] = tested on: NCI-H226
[32] = tested on: A498
[33] = tested on: DMS-273
[34] = tested on: DLD-1
[35] = tested on: LOX IMVI
[36] = tested on: M19-MEL
[37] = tested on: HT-29
[38] = tested on: RPMI-8226
[39] = tested on: SNB-78
[40] = tested on: HCT-116
[41] = tested on: SR
[42] = tested on: M14
[43] = tested on: NCI-H522
[44] = tested on: SNB-19
[45] = tested on: TK-10
[46] = tested on: SF-539
[47] = tested on: UO-31
[48] = tested on: DMS-114
[49] = tested on: UACC-62
[50] = tested on: XF498
[51] = tested on: MDA-N
[52] = tested on: OVCAR-3
[53] = tested on: Malme-3M
[54] = tested on: CCRF-CEM
[55] = tested on: MCF7
[56] = tested on: LXFL 529
[57] = tested on: U-251
[58] = tested on: SN12C
[59] = tested on: K562
[60] = tested on: COLO 205

COC1=C(C)C(=O)C2=C(C1=O)C(CO)N1C(C#N)C3CC4C(C1C2N1CCOC41)N3C (stereo not given)
GI50 [1]: 0.0128 µM (active)
GI50 [2]: < 14.6 nM (active) and 16.4 nM (active)
GI50 [3]: 72.4 nM (active) and 60.3 nM (active)
GI50 [4]: 20.9 nM (active) and 20.6 nM (active)
GI50 [5]: 0.0617 µM (active)
GI50 [6]: 354 nM (active) and 321 nM (active)
GI50 [7]: 314 nM (active) and 305 nM (active)
GI50 [8]: 50.7 nM (active) and 29.9 nM (active)
GI50 [9]: 35.2 nM (active) and 39.1 nM (active)
GI50 [10]: < 0.01 µM and 0.0144 µM
GI50 [11]: 0.167 µM (active)
GI50 [12]: 24.1 nM (active) and < 16.9 nM (active)
GI50 [13]: 164 nM (active) and 261 nM (active)
GI50 [14]: 64.1 nM (active) and 38.8 nM (active)
GI50 [15]: 45.1 nM (active) and 32.4 nM (active)
GI50 [16]: 51.8 nM (active) and 52 nM (active)
GI50 [17]: 78.5 nM (active) and 85.9 nM (active)
GI50 [18]: 20 nM (active) and 26.8 nM (active)
GI50 [19]: 15.8 nM (active) and 19.4 nM (active)
GI50 [20]: 26.2 nM (active) and 27.7 nM (active)
GI50 [21]: 58.8 nM (active) and 80.7 nM (active)
GI50 [22]: 0.132 µM (active)
GI50 [23]: 22.6 nM (active) and 31.5 nM (active)
GI50 [24]: 13.3 nM (active)
GI50 [25]: 90.8 nM (active) and 150 nM (active)
GI50 [26]: 292 nM (active) and 179 nM (active)
GI50 [27]: 262 nM (active) and 241 nM (active)
GI50 [28]: 30.3 nM (active) and 19.3 nM (active)
GI50 [29]: 270 nM (active) and 166 nM (active)
GI50 [30]: 20.6 nM (active) and 39.5 nM (active)
GI50 [31]: 99.3 nM (active) and 57.9 nM (active)
GI50 [32]: 0.146 µM (active)
GI50 [33]: 20 nM (active)
GI50 [34]: 7.06 nM (active)
GI50 [35]: 11.6 nM (active) and < 14.1 nM (active)
GI50 [36]: 49.2 nM (active)

Clc1ccc2c(c1)[nH]c1c2nc2ccccn21
GI50 [2]: 24.8 µM (inactive)
GI50 [5]: 14.7 µM (inactive)
GI50 [6]: 25.1 µM (inactive)
GI50 [9]: 21.6 µM (inactive)
GI50 [37]: 15.2 µM (inactive)
GI50 [11]: 22.5 µM (inactive)
GI50 [13]: 27.3 µM (inactive)
GI50 [38]: 14.7 µM (inactive)
GI50 [15]: 40.8 µM (inactive)
GI50 [16]: 17.4 µM (inactive)
GI50 [39]: 23.6 µM (inactive)
GI50 [17]: 19 µM (inactive)
GI50 [18]: 18.9 µM (inactive)
GI50 [20]: 16.7 µM (inactive)
GI50 [21]: 16.9 µM (inactive)
GI50 [40]: 19.3 µM (inactive)
GI50 [41]: 17.1 µM (inactive)
GI50 [42]: 20.2 µM (inactive)
GI50 [43]: 19.8 µM (inactive)
GI50 [44]: 19.4 µM (inactive)
GI50 [45]: 16.8 µM (inactive)
GI50 [31]: 25.4 µM (inactive)
GI50 [46]: 15.9 µM (inactive)
GI50 [47]: 18.4 µM (inactive)
GI50 [32]: 24.2 µM (inactive)

COc1ccc(/C=C\c2cc(OC)c(OC)c(OC)c2)cc1OC(=O)C(N)CCC(=O)O (stereo not given)
GI50 [1]: 0.000135 µM (active)
GI50 [2]: 0.00015 µM (active)
GI50 [5]: 0.00252 µM (active)
GI50 [6]: 0.000802 µM (active)
GI50 [9]: 0.000114 µM (active)
GI50 [37]: 1.43 µM (inactive)
GI50 [48]: < 1e-05 µM (active)
GI50 [38]: 0.0001 µM (active)
GI50 [16]: 0.000188 µM (active)
GI50 [49]: 8.02e-05 µM (active)
GI50 [39]: < 1e-05 µM (active)
GI50 [18]: 0.000764 µM (active)
GI50 [50]: < 1e-05 µM (active)
GI50 [20]: 0.000465 µM (active)
GI50 [21]: 0.000131 µM (active)
GI50 [22]: 0.0764 µM (active)
GI50 [40]: 0.00015 µM (active)
GI50 [24]: 0.075 nM (active)
GI50 [25]: 0.133 nM (active)
GI50 [51]: 0.05 nM (active)
GI50 [41]: 0.000208 µM (active)
GI50 [52]: 0.00011 µM (active)
GI50 [42]: 0.00016 µM (active)
GI50 [43]: 8.51e-05 µM (active)
GI50 [28]: 0.143 nM (active)
GI50 [53]: 0.000105 µM (active)
GI50 [31]: 0.000632 µM (active)
GI50 [46]: 8.22e-05 µM (active)
GI50 [33]: < 0.01 nM (active)
GI50 [34]: < 0.01 nM (active)
GI50 [54]: 0.000117 µM (active)
GI50 [55]: 0.00229 µM (active)
GI50 [56]: < 10 pM (active)
GI50 [36]: < 0.01 nM (active)

CC1=C(C(=O)Nc2ccccc2C)C(c2ccc(N(C)C)cc2)C(C(=O)Nc2ccccc2C)=C(C)N1
GI50 [1]: 26.8 µM (inactive)
GI50 [2]: 51.8 µM (inactive)
GI50 [3]: 34.5 µM (inactive)
GI50 [4]: 35.5 µM (inactive)
GI50 [5]: > 100 µM (inactive)
GI50 [6]: 94 µM (inactive)
GI50 [7]: > 100 µM (inactive)
GI50 [8]: 38.5 µM (inactive)
GI50 [9]: 58.7 µM (inactive)
GI50 [37]: > 100 µM (inactive)
GI50 [10]: 67.9 µM
GI50 [11]: 56.4 µM (inactive)
GI50 [13]: > 100 µM (inactive)
GI50 [48]: 48.4 µM (inactive)
GI50 [38]: 17.1 µM (inactive)
GI50 [14]: 67.6 µM (inactive)
GI50 [15]: > 100 µM (inactive)
GI50 [16]: 74.8 µM (inactive)
GI50 [49]: 44.3 µM (inactive)
GI50 [17]: 70.5 µM (inactive)
GI50 [18]: 72.3 µM (inactive)
GI50 [50]: 22.6 µM (inactive)
GI50 [19]: 36.2 µM (inactive)
GI50 [20]: 71.6 µM (inactive)
GI50 [21]: 48.4 µM (inactive)
GI50 [57]: > 100 µM (inactive)
GI50 [40]: 55.3 µM (inactive)
GI50 [24]: 19000 nM (inactive)
GI50 [25]: 63800 nM (inactive)
GI50 [58]: 83.6 µM (inactive)
GI50 [59]: 26.2 µM (inactive)
GI50 [52]: > 100 µM (inactive)
GI50 [60]: > 100 µM (inactive)
GI50 [26]: > 100 µM (inactive)
GI50 [43]: 37.8 µM (inactive)
GI50 [44]: > 100 µM (inactive)
GI50 [27]: > 100 µM (inactive)
GI50 [45]: > 100 µM (inactive)
GI50 [28]: 88500 nM (inactive)
GI50 [53]: 82.6 µM (inactive)
GI50 [29]: 28.6 µM (inactive)
GI50 [31]: > 100 µM (inactive)
GI50 [46]: > 100 µM (inactive)
GI50 [47]: 55.2 µM (inactive)
GI50 [32]: > 100 µM (inactive)
GI50 [33]: 64900 nM (inactive)
GI50 [34]: 45900 nM (inactive)
GI50 [54]: 31.8 µM (inactive)
GI50 [35]: 56.8 µM (inactive)
GI50 [36]: > 100000 nM (inactive)
